# Measured values reported in ChEMBL document CHEMBL4627399, “Synthesis and Structure-Activity Relationships of 5'-Aryl-14-alkoxypyridomorphinans: Identification of a μ Opioid Receptor Agonist/δ Opioid Receptor Antagonist Ligand with Systemic Antinociceptive Activity and Diminished Opioid Side Effects” (J Med Chem, 2020).
# The source made the active and inactive calls. No cut-off for these calls is given here.
# Tested on: not listed separately
# Assay: Stability in human liver microsomes at 1 uM measured up to 60 mins by LC-MS/MS analysis
# Format: ADME, Microsome
# Details: 1 h
row,Compound,Stability
1,Oc1ccc2c3c1O[C@H]1c4ncc(-c5ccccc5)cc4C[C@@]4(OCCCc5ccncc5)[C@@H](C2)N(CC2CC2)CC[C@]314,Stable
2,COc1cc(-c2cnc3c(c2)C[C@@]2(OCCCc4ccccc4)[C@H]4Cc5ccc(O)c6c5[C@@]2(CCN4CC2CC2)[C@H]3O6)ccn1,Stable
3,Oc1ccc2c3c1O[C@H]1c4ncc(-c5ccc(Cl)cc5)cc4C[C@@]4(OCCCc5ccncc5)[C@@H](C2)N(CC2CC2)CC[C@]314,Stable
4,COc1ccccc1-c1cnc2c(c1)C[C@@]1(OCCCc3ccccc3)[C@H]3Cc4ccc(O)c5c4[C@@]1(CCN3CC1CC1)[C@H]2O5,Stable
5,Oc1ccc2c3c1O[C@H]1c4ncc(-c5ccc(Cl)cc5)cc4C[C@@]4(OCc5ccc6ccccc6n5)[C@@H](C2)N(CC2CC2)CC[C@]314,Stable
6,Cc1cc(-c2cnc3c(c2)C[C@@]2(OCCCc4ccccc4)[C@H]4Cc5ccc(O)c6c5[C@@]2(CCN4CC2CC2)[C@H]3O6)ccn1,Stable
7,Cc1nnc(-c2cnc3c(c2)C[C@@]2(OCCCc4ccccc4)[C@H]4Cc5ccc(O)c6c5[C@@]2(CCN4CC2CC2)[C@H]3O6)o1,Stable
8,Oc1ccc2c3c1O[C@H]1c4ncc(-c5ccc(Cl)cc5)cc4C[C@@]4(OCCOc5ccccc5)[C@@H](C2)N(CC2CC2)CC[C@]314,Stable

# Tested on: Mus musculus
# Assay: Antinociceptive activity in iv dosed CD-1 mouse measured after 15 mins by warm water tail-flick assay
# Format: functional, organism-based
# Details: not given
row,Compound,Activity
1,Cc1nnc(-c2cnc3c(c2)C[C@@]2(OCCCc4ccccc4)[C@H]4Cc5ccc(O)c6c5[C@@]2(CCN4CC2CC2)[C@H]3O6)o1,Dose-dependent effect

# Molecular target: T1, Mu-type opioid receptor (Homo sapiens, UniProt P35372)
# Assay: Agonist activity at human mu opioid receptor expressed in CHO cell membranes assessed as stimulation of [35S]GTPgammaS binding incubated for 1 hr relative to DAMGO
# Format: functional
# Details: not given
row,Compound,Emax
1,Oc1ccc2c3c1O[C@H]1c4ncc(-c5ccccc5)cc4C[C@@]4(OCCCc5ccncc5)[C@@H](C2)N(CC2CC2)CC[C@]314,inactive
2,Oc1ccc2c3c1O[C@H]1c4ncc(-c5ccc(Cl)cc5)cc4C[C@@]4(OCCCc5ccncc5)[C@@H](C2)N(CC2CC2)CC[C@]314,inactive
3,Oc1ccc2c3c1O[C@H]1c4ncc(-c5ccc(Cl)cc5)cc4C[C@@]4(OCc5ccc6ccccc6n5)[C@@H](C2)N(CC2CC2)CC[C@]314,inactive
4,Oc1ccc2c3c1O[C@H]1c4ncc(-c5ccc(Cl)cc5)cc4C[C@@]4(OCCOc5ccccc5)[C@@H](C2)N(CC2CC2)CC[C@]314,inactive

# Molecular target: T2, Kappa-type opioid receptor (Homo sapiens, UniProt P41145)
# Assay: Agonist activity at human kappa opioid receptor expressed in CHO cell membranes incubated for 1 hr by [35S]GTPgammaS binding assay
# Format: functional
# Details: cho
row,Compound,EC50
1,COc1cc(-c2cnc3c(c2)C[C@@]2(OCCCc4ccccc4)[C@H]4Cc5ccc(O)c6c5[C@@]2(CCN4CC2CC2)[C@H]3O6)ccn1,Not Active
2,COc1ccccc1-c1cnc2c(c1)C[C@@]1(OCCCc3ccccc3)[C@H]3Cc4ccc(O)c5c4[C@@]1(CCN3CC1CC1)[C@H]2O5,Not Active
3,Cc1cc(-c2cnc3c(c2)C[C@@]2(OCCCc4ccccc4)[C@H]4Cc5ccc(O)c6c5[C@@]2(CCN4CC2CC2)[C@H]3O6)ccn1,Not Active
4,Cc1nnc(-c2cnc3c(c2)C[C@@]2(OCCCc4ccccc4)[C@H]4Cc5ccc(O)c6c5[C@@]2(CCN4CC2CC2)[C@H]3O6)o1,Not Active

# Molecular target: T2, Kappa-type opioid receptor
# Assay: Displacement of [3H]-diprenorphine from human kappa opioid receptor expressed in CHO cell membranes incubated for 1 hr by competition radioligand binding assay
# Details: not given
row,Compound,Ki
1,Oc1ccc2c3c1O[C@H]1c4ncc(-c5ccccc5)cc4C[C@@]4(OCCCc5ccncc5)[C@@H](C2)N(CC2CC2)CC[C@]314,21.9 nM
2,COc1cc(-c2cnc3c(c2)C[C@@]2(OCCCc4ccccc4)[C@H]4Cc5ccc(O)c6c5[C@@]2(CCN4CC2CC2)[C@H]3O6)ccn1,6.62 nM
3,Oc1ccc2c3c1O[C@H]1c4ncc(-c5ccc(Cl)cc5)cc4C[C@@]4(OCCCc5ccncc5)[C@@H](C2)N(CC2CC2)CC[C@]314,10.3 nM
4,COc1ccccc1-c1cnc2c(c1)C[C@@]1(OCCCc3ccccc3)[C@H]3Cc4ccc(O)c5c4[C@@]1(CCN3CC1CC1)[C@H]2O5,126 nM
5,Oc1ccc2c3c1O[C@H]1c4ncc(-c5ccc(Cl)cc5)cc4C[C@@]4(OCc5ccc6ccccc6n5)[C@@H](C2)N(CC2CC2)CC[C@]314,31 nM
6,Cc1cc(-c2cnc3c(c2)C[C@@]2(OCCCc4ccccc4)[C@H]4Cc5ccc(O)c6c5[C@@]2(CCN4CC2CC2)[C@H]3O6)ccn1,< 0.51 nM
7,Cc1nnc(-c2cnc3c(c2)C[C@@]2(OCCCc4ccccc4)[C@H]4Cc5ccc(O)c6c5[C@@]2(CCN4CC2CC2)[C@H]3O6)o1,14.8 nM
8,Oc1ccc2c3c1O[C@H]1c4ncc(-c5ccc(Cl)cc5)cc4C[C@@]4(OCCOc5ccccc5)[C@@H](C2)N(CC2CC2)CC[C@]314,21.3 nM

# Molecular target: T2, Kappa-type opioid receptor
# Assay: Agonist activity at human kappa opioid receptor expressed in CHO cell membranes assessed as stimulation of [35S]GTPgammaS binding incubated for 1 hr relative to […]
# Format: functional
# Details: not given
row,Compound,Emax
1,COc1cc(-c2cnc3c(c2)C[C@@]2(OCCCc4ccccc4)[C@H]4Cc5ccc(O)c6c5[C@@]2(CCN4CC2CC2)[C@H]3O6)ccn1,inactive
2,COc1ccccc1-c1cnc2c(c1)C[C@@]1(OCCCc3ccccc3)[C@H]3Cc4ccc(O)c5c4[C@@]1(CCN3CC1CC1)[C@H]2O5,inactive
3,Cc1cc(-c2cnc3c(c2)C[C@@]2(OCCCc4ccccc4)[C@H]4Cc5ccc(O)c6c5[C@@]2(CCN4CC2CC2)[C@H]3O6)ccn1,inactive
4,Cc1nnc(-c2cnc3c(c2)C[C@@]2(OCCCc4ccccc4)[C@H]4Cc5ccc(O)c6c5[C@@]2(CCN4CC2CC2)[C@H]3O6)o1,inactive

# Molecular target: T1, Mu-type opioid receptor
# Assay: not given
# Details: cho
row,Compound,EC50
1,Oc1ccc2c3c1O[C@H]1c4ncc(-c5ccccc5)cc4C[C@@]4(OCCCc5ccncc5)[C@@H](C2)N(CC2CC2)CC[C@]314,Not Active
2,Oc1ccc2c3c1O[C@H]1c4ncc(-c5ccc(Cl)cc5)cc4C[C@@]4(OCCCc5ccncc5)[C@@H](C2)N(CC2CC2)CC[C@]314,Not Active
3,Oc1ccc2c3c1O[C@H]1c4ncc(-c5ccc(Cl)cc5)cc4C[C@@]4(OCc5ccc6ccccc6n5)[C@@H](C2)N(CC2CC2)CC[C@]314,Not Active
4,Oc1ccc2c3c1O[C@H]1c4ncc(-c5ccc(Cl)cc5)cc4C[C@@]4(OCCOc5ccccc5)[C@@H](C2)N(CC2CC2)CC[C@]314,Not Active

# Molecular target: T3, Delta-type opioid receptor (Homo sapiens, UniProt P41143)
# Assay: Antagonist activity at human delta opioid receptor expressed in CHO cell membranes assessed as reduction in SNC80-induced [35S]GTPgammaS binding preincubated for 5 mins followed by SNC80 addition and measured after 1 hr
# Format: functional
# Details: not given
row,Compound,IC50
1,Oc1ccc2c3c1O[C@H]1c4ncc(-c5ccccc5)cc4C[C@@]4(OCCCc5ccncc5)[C@@H](C2)N(CC2CC2)CC[C@]314,< 0.51 nM
2,COc1cc(-c2cnc3c(c2)C[C@@]2(OCCCc4ccccc4)[C@H]4Cc5ccc(O)c6c5[C@@]2(CCN4CC2CC2)[C@H]3O6)ccn1,0.7 nM
3,Oc1ccc2c3c1O[C@H]1c4ncc(-c5ccc(Cl)cc5)cc4C[C@@]4(OCCCc5ccncc5)[C@@H](C2)N(CC2CC2)CC[C@]314,4.69 nM
4,COc1ccccc1-c1cnc2c(c1)C[C@@]1(OCCCc3ccccc3)[C@H]3Cc4ccc(O)c5c4[C@@]1(CCN3CC1CC1)[C@H]2O5,0.79 nM
5,Oc1ccc2c3c1O[C@H]1c4ncc(-c5ccc(Cl)cc5)cc4C[C@@]4(OCc5ccc6ccccc6n5)[C@@H](C2)N(CC2CC2)CC[C@]314,10.8 nM
6,Cc1cc(-c2cnc3c(c2)C[C@@]2(OCCCc4ccccc4)[C@H]4Cc5ccc(O)c6c5[C@@]2(CCN4CC2CC2)[C@H]3O6)ccn1,0.39 nM
7,Cc1nnc(-c2cnc3c(c2)C[C@@]2(OCCCc4ccccc4)[C@H]4Cc5ccc(O)c6c5[C@@]2(CCN4CC2CC2)[C@H]3O6)o1,< 0.17 nM
8,Oc1ccc2c3c1O[C@H]1c4ncc(-c5ccc(Cl)cc5)cc4C[C@@]4(OCCOc5ccccc5)[C@@H](C2)N(CC2CC2)CC[C@]314,25.4 nM

# Molecular target: T1, Mu-type opioid receptor
# Assay: biochemical
# Format: cell-based, CHO
# Details: not given
row,Compound,Ki
1,Oc1ccc2c3c1O[C@H]1c4ncc(-c5ccccc5)cc4C[C@@]4(OCCCc5ccncc5)[C@@H](C2)N(CC2CC2)CC[C@]314,3.82 nM
2,COc1cc(-c2cnc3c(c2)C[C@@]2(OCCCc4ccccc4)[C@H]4Cc5ccc(O)c6c5[C@@]2(CCN4CC2CC2)[C@H]3O6)ccn1,10.7 nM
3,Oc1ccc2c3c1O[C@H]1c4ncc(-c5ccc(Cl)cc5)cc4C[C@@]4(OCCCc5ccncc5)[C@@H](C2)N(CC2CC2)CC[C@]314,5.37 nM
4,COc1ccccc1-c1cnc2c(c1)C[C@@]1(OCCCc3ccccc3)[C@H]3Cc4ccc(O)c5c4[C@@]1(CCN3CC1CC1)[C@H]2O5,61.9 nM
5,Oc1ccc2c3c1O[C@H]1c4ncc(-c5ccc(Cl)cc5)cc4C[C@@]4(OCc5ccc6ccccc6n5)[C@@H](C2)N(CC2CC2)CC[C@]314,799 nM
6,Cc1cc(-c2cnc3c(c2)C[C@@]2(OCCCc4ccccc4)[C@H]4Cc5ccc(O)c6c5[C@@]2(CCN4CC2CC2)[C@H]3O6)ccn1,1.05 nM
7,Cc1nnc(-c2cnc3c(c2)C[C@@]2(OCCCc4ccccc4)[C@H]4Cc5ccc(O)c6c5[C@@]2(CCN4CC2CC2)[C@H]3O6)o1,3.18 nM
8,Oc1ccc2c3c1O[C@H]1c4ncc(-c5ccc(Cl)cc5)cc4C[C@@]4(OCCOc5ccccc5)[C@@H](C2)N(CC2CC2)CC[C@]314,819 nM

# Molecular target: T1, Mu-type opioid receptor
# Assay: biochemical
# Details: not given
# Remark: another data set of the same source
row,Compound,EC50
1,COc1cc(-c2cnc3c(c2)C[C@@]2(OCCCc4ccccc4)[C@H]4Cc5ccc(O)c6c5[C@@]2(CCN4CC2CC2)[C@H]3O6)ccn1,2.69 nM
2,COc1ccccc1-c1cnc2c(c1)C[C@@]1(OCCCc3ccccc3)[C@H]3Cc4ccc(O)c5c4[C@@]1(CCN3CC1CC1)[C@H]2O5,7.18 nM
3,Cc1cc(-c2cnc3c(c2)C[C@@]2(OCCCc4ccccc4)[C@H]4Cc5ccc(O)c6c5[C@@]2(CCN4CC2CC2)[C@H]3O6)ccn1,1.88 nM
4,Cc1nnc(-c2cnc3c(c2)C[C@@]2(OCCCc4ccccc4)[C@H]4Cc5ccc(O)c6c5[C@@]2(CCN4CC2CC2)[C@H]3O6)o1,17.5 nM

# Molecular target: T3, Delta-type opioid receptor
# Assay: Displacement of [3H]-diprenorphine from human delta opioid receptor expressed in CHO cell membranes incubated for 1 hr by competition radioligand binding assay
# Details: not given
row,Compound,Ki
1,Oc1ccc2c3c1O[C@H]1c4ncc(-c5ccccc5)cc4C[C@@]4(OCCCc5ccncc5)[C@@H](C2)N(CC2CC2)CC[C@]314,29.2 nM
2,COc1cc(-c2cnc3c(c2)C[C@@]2(OCCCc4ccccc4)[C@H]4Cc5ccc(O)c6c5[C@@]2(CCN4CC2CC2)[C@H]3O6)ccn1,3.5 nM
3,Oc1ccc2c3c1O[C@H]1c4ncc(-c5ccc(Cl)cc5)cc4C[C@@]4(OCCCc5ccncc5)[C@@H](C2)N(CC2CC2)CC[C@]314,5.24 nM
4,COc1ccccc1-c1cnc2c(c1)C[C@@]1(OCCCc3ccccc3)[C@H]3Cc4ccc(O)c5c4[C@@]1(CCN3CC1CC1)[C@H]2O5,29.7 nM
5,Oc1ccc2c3c1O[C@H]1c4ncc(-c5ccc(Cl)cc5)cc4C[C@@]4(OCc5ccc6ccccc6n5)[C@@H](C2)N(CC2CC2)CC[C@]314,32.5 nM
6,Cc1cc(-c2cnc3c(c2)C[C@@]2(OCCCc4ccccc4)[C@H]4Cc5ccc(O)c6c5[C@@]2(CCN4CC2CC2)[C@H]3O6)ccn1,63.5 nM
7,Cc1nnc(-c2cnc3c(c2)C[C@@]2(OCCCc4ccccc4)[C@H]4Cc5ccc(O)c6c5[C@@]2(CCN4CC2CC2)[C@H]3O6)o1,8.12 nM
8,Oc1ccc2c3c1O[C@H]1c4ncc(-c5ccc(Cl)cc5)cc4C[C@@]4(OCCOc5ccccc5)[C@@H](C2)N(CC2CC2)CC[C@]314,172 nM
